Measurements: patent US8796244B2, “Imidazopyridine derivatives as inhibitors of receptor tyrosine kinases” (Astex Therapeutics Ltd, priority 2008, dated 2014)

What was measured:
[1] = system: parental wild-type Ba/F3 cells; assay: Ba/F3 (WT) cell proliferation assay (Alamar Blue); assay type: cell-based; conditions: Mus musculus; for inhibition at 10 µM / inhibition at 1 µM / inhibition at 3 µM: BaF3, read-out: BaF3 WT prolif, % inhibition; for IC50: BaF3, 72 hours, Alamar Blue, read-out: BaF3 WT prolif
[2] = molecular target: VEGFR2 (Homo sapiens (Human), UniProt P35968); assay: VEGFR2 in vitro kinase inhibitory activity assay (TRF, Flt3 substrate); assay type: biochemical
[3] = system: LP-1 cell line (FGF-1/Heparin induced pERK); assay: Cell-based pERK ELISA, LP-1 cells; conditions: Homo sapiens, LP-1, read-out: LP-1 pERK ELISA, % inhibition
[4] = molecular target: FGFR3 (Homo sapiens (Human), UniProt P22607); assay: FGFR3 in vitro kinase inhibitory activity assay (TRF); conditions: 3 h, read-out: FGFR3 % I
[5] = system: Ba/F3-TEL-FGFR3 cells; assay: Ba/F3-TEL-FGFR3 cell proliferation assay (Alamar Blue); assay type: cell-based; conditions: 72 hours, Alamar Blue; read-out: BaF3-TEL-FGFR3 prolif

Sequence of VEGFR2 (P35968 20-1356): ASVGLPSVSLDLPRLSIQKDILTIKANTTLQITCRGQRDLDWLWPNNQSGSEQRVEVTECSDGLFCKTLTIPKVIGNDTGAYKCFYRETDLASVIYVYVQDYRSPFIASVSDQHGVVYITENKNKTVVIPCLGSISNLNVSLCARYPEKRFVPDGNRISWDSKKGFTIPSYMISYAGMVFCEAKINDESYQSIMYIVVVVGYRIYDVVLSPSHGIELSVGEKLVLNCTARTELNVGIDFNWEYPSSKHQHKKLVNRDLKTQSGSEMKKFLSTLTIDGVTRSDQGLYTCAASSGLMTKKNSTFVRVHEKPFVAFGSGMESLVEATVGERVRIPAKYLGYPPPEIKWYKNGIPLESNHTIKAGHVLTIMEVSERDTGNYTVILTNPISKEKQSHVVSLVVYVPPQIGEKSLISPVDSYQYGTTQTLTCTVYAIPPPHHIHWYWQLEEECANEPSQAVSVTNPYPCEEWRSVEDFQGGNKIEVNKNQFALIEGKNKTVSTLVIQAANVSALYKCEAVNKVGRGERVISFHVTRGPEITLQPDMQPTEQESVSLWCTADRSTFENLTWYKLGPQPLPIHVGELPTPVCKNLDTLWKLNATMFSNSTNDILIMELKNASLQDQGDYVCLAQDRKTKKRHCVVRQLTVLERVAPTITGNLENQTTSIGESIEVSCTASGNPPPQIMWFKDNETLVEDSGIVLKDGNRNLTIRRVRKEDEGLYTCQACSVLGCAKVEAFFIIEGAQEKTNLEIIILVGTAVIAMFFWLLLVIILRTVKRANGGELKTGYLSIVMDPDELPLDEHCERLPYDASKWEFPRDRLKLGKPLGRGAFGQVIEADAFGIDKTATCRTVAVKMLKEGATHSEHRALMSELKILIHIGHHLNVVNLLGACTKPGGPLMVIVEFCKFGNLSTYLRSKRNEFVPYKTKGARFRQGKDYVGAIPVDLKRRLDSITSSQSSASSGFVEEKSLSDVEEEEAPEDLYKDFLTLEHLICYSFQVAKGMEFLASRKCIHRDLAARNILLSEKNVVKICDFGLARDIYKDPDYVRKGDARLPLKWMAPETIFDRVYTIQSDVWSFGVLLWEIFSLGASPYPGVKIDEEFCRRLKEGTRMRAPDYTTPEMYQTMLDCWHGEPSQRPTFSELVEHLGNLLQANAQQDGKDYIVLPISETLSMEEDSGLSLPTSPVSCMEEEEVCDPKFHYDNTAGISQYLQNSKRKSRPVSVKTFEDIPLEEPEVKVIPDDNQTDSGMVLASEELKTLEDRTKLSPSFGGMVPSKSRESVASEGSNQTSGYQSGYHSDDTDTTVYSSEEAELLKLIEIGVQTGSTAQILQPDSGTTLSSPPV
Sequence of FGFR3 (P22607 23-806): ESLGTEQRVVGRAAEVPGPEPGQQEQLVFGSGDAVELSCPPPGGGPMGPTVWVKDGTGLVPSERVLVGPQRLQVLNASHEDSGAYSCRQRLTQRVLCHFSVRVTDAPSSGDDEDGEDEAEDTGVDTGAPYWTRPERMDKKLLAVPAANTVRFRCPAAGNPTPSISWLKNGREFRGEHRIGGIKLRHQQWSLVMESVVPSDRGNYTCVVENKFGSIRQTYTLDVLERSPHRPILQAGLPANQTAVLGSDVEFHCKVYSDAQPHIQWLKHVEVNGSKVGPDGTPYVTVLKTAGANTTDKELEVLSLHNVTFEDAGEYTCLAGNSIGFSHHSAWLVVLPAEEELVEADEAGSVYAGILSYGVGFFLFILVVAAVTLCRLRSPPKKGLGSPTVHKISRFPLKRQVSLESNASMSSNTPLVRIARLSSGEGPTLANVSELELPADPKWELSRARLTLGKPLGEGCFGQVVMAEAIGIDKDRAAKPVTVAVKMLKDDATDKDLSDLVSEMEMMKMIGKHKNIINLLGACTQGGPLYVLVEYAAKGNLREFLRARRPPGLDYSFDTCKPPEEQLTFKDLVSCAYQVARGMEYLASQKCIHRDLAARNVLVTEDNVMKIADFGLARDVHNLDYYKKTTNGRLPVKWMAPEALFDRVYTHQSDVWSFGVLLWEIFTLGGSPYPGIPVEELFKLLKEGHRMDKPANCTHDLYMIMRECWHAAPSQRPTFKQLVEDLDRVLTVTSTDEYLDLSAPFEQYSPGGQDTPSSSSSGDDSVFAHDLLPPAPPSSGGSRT

`CCNc1nc(-c2ccn3c(-c4cccc(NC(=O)NCC(F)(F)F)c4)cnc3c2)ncc1F` [Example 177] showed an inhibition at 10 µM [1] of 16%, an IC50 [2] greater than 1000 nM and an inhibition at 10 µM [3] of 47%.
`Nc1ncc(C(F)(F)F)c(-c2ccn3c(-c4cccc(NC(=O)NCC(F)(F)F)c4)cnc3c2)n1` [Example 179] was tested, and the inhibition at 1 µM [1] was 22% and the IC50 [2] was greater than 10000 nM.
`O=C(NCC(F)(F)F)Nc1cccc(-c2cnc3cc(-c4nc(NC5CCC5)ncc4C(F)(F)F)ccn23)c1` [Example 191] showed an inhibition at 1 µM [1] of 18% and an IC50 [2] greater than 30000 nM.
`O=C(NCC(F)(F)F)Nc1cccc(-c2cnc3cc(-c4ncc(C(F)(F)F)c(NC5CCC5)n4)ccn23)c1` [Example 192] was tested, and the inhibition at 3 µM [1] was 49% and the IC50 [2] was greater than 3000 nM.
Work on `CC(C)(C)OC(=O)NC1CN(c2ccnc(-c3ccn4c(-c5cccc(NC(=O)NCC(F)(F)F)c5)cnc4c3)n2)C1` [Example 193] yielded an IC50 [1] of 1500 nM, an inhibition at 0.89 µM ([2]; 1 h, at 0.89 μM, read-out: VEGFR2 % I) of 36% and an inhibition at 3.11 µM ([2]; 1 h, at 3.11 μM, read-out: VEGFR2 % I) of 48%.
With `CNc1cc(-c2ccn3c(-c4cccc(NC(=O)NCC(F)(F)F)c4)cnc3c2)ncn1` [Example 195] the IC50 [1] was 5000 nM, the inhibition at 0.00097 µM [4] was 66% and the IC50 [5] was 76 nM.
For `Cc1nc(-c2ccn3c(-c4cccc(NC(=O)NCC(F)(F)F)c4)cnc3c2)cc(N(C)C)n1` [Example 198], the inhibition at 3 µM [1] was 39% and the IC50 [5] was 270 nM.
`O=C(NCC(F)(F)F)Nc1cccc(-c2cnc3cc(-c4ccc(O)cn4)ccn23)c1` [Example 202] gave an inhibition at 1 µM [1] of 21%, an inhibition at 0.001 µM [4] of 46% and an IC50 [5] of 260 nM.
Work on `Nc1cc(-c2ccn3c(-c4cccc(NC(=O)NCC(F)(F)F)c4)cnc3c2)nc(C(F)(F)F)n1` [Example 210] yielded an inhibition at 3 µM [1] of 13% and an inhibition at 0.1 µM ([2]; 1 h, at 0.1 μM, read-out: VEGFR2 % I) of 42%.
Molecule `CC(=O)N1CC(n2cc(-c3ccn4c(-c5cccc(NC(=O)NCC(F)(F)F)c5)cnc4c3)cn2)C1` [Example 212] has an inhibition at 3 µM [1] of 10% and an IC50 [2] greater than 300 nM.
`O=C(NCC(F)(F)F)Nc1cccc(-c2cnc3cc(-c4ccc(C(=O)N5CCOCC5)cn4)ccn23)c1` [Example 223] gave an inhibition at 3 µM [1] of 45% and an inhibition at 0.3 µM ([2]; 1 h, read-out: VEGFR2 % I) of 39%.
Molecule `CNC(=O)c1ccc(-c2ccn3c(-c4cccc(NC(=O)NCC(F)(F)F)c4)cnc3c2)nc1` [Example 224] has an inhibition at 3 µM [1] of 16%, an inhibition at 0.001 µM [4] of 61% and an IC50 [5] of 33 nM.
`CCNC(=O)Nc1cccc(-c2cnc3cc(-c4ncc(OC)cn4)ccn23)c1` [Example 230] gave an IC50 [1] of 160 nM, an inhibition at 0.003 µM [4] of 49% and an IC50 [5] of 90 nM.
`O=C(NCC(F)(F)F)Nc1cccc(-c2cnc3cc(-c4cnc(C(F)(F)F)nc4)ccn23)c1` [Example 232] showed an IC50 [1] of 600 nM, an inhibition at 0.001 µM [4] of 45% and an IC50 [5] of 45 nM.
For `CC(C)c1nccc(-c2ccn3c(-c4cccc(NC(=O)NCC(F)(F)F)c4)cnc3c2)n1` [Example 233], the IC50 [1] was 14.9 nM and the inhibition at 3.1 µM ([2]; 1 h, at 3.1 μM, read-out: VEGFR2 % I) was 62%.
Molecule `CCNC(=O)Nc1cccc(-c2cnc3cc(-c4nnc(C(F)(F)F)s4)ccn23)c1` [Example 236] has an inhibition at 0.31 µM [4] of 46%.
In the case of `Cc1nc(-c2ccn3c(-c4cccc(NC(=O)NCC(F)(F)F)c4)cnc3c2)cc(C(F)(F)F)n1` [Example 238], the inhibition at 10 µM [1] is reported as 41% and the inhibition at 0.31 µM ([2]; 1 h, at 0.31 μM, read-out: VEGFR2 % I) is reported as 40%.
`CCNC(=O)Nc1cccc(-c2cnc3cc(-c4ccnc(C(F)(F)F)n4)ccn23)c1` [Example 239] gave an inhibition at 3 µM [1] of 26% and an inhibition at 1 µM ([2]; 1 h, at 1 μM, read-out: VEGFR2 % I) of 49%.
Work on `Nc1nc(-c2ccn3c(-c4cccc(NC(=O)NCC(F)(F)F)c4)cnc3c2)cc(C(F)(F)F)n1` [Example 245] yielded an IC50 [1] of 2200 nM and an inhibition at 0.3 µM ([2]; 1 h, read-out: VEGFR2 % I) of 43%.
`CCN(CC)CCc1nnc(-c2ccn3c(-c4cccc(NC(=O)NCC(F)(F)F)c4)cnc3c2)s1` [Example 246] showed an IC50 [1] of 1000 nM and an inhibition at 0.3 µM ([2]; 1 h, read-out: VEGFR2 % I) of 45%.
